Activity calls are given as the source filed them. The rule behind the calls is not given here.
Key:
Mus musculus [1] = assay: Antinociceptive activity against Swiss Webster mouse model assessed as increase in tail withdrawal latency from warm water by measuring maximum possible effect at 10 mg/kg, sc measured after 20 min by warm water tail immersion assay; assay type: functional, organism-based
Mus musculus [2] = assay: Antinociceptive activity against Swiss Webster mouse model assessed as increase in tail withdrawal latency from warm water at 10 mg/kg, sc incubated for 5 mins followed by morphine addition and measured after 20 mins by warm water tail immersion assay; assay type: functional, organism-based
Mu-type opioid receptor [3] = biological target: T1, Mu-type opioid receptor (Mus musculus, UniProt P42866); assay: Partial agonist activity at mouse mu opioid receptor expressed in CHO cell membranes incubated for 1.5 hrs by [35S]GTPgammaS binding based liquid scintillation counting method
[4] = biological target: T2, Delta-type opioid receptor (Homo sapiens, UniProt P41143)
Description: Displacement of [3H]-diprenorphine from human delta opioid receptor expressed in CHO cell membranes assessed as inhibition constant incubated for 1.5 hrs by competitive binding assay

Mu-type opioid receptor [5] = biological target: T1, Mu-type opioid receptor
[6] = biological target: T3, Kappa-type opioid receptor (Mus musculus, UniProt P33534)
Description: Displacement of [3H]-diprenorphine from mouse kappa opioid receptor expressed in CHO cell membranes assessed as inhibition constant incubated for 1.5 hrs by competitive binding assay

[7] = Solubility of the compound in DMSO; assay type: physicochemical
[8] = biological target: T2, Delta-type opioid receptor; assay: biochemical
Description: Antagonist activity against human delta opioid receptor expressed in CHO cell membrane assessed as reduction in SNC80 induced [35S]GTPgammaS binding incubated for 1.5 hrs by liquid scintillation counting method

[9] = biological target: T3, Kappa-type opioid receptor; assay: biochemical
Description: Antagonist activity at mouse kappa opioid receptor expressed in CHO cell membranes assessed as reduction in U50,488H induced [35S]GTPgammaS binding incubated for 1.5 hrs by liquid scintillation counting method

T3 sequence (P33534 whole entry): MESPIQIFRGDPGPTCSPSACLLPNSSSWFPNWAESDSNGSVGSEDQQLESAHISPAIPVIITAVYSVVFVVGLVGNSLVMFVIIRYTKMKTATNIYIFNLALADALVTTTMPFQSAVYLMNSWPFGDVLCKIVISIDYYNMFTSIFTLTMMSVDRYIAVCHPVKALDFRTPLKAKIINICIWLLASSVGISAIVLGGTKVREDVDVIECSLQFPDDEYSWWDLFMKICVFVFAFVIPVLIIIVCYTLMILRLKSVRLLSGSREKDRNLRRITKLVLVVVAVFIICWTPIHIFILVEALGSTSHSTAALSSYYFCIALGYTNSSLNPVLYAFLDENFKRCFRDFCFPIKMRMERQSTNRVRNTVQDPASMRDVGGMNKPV
T1 sequence (P42866 whole entry): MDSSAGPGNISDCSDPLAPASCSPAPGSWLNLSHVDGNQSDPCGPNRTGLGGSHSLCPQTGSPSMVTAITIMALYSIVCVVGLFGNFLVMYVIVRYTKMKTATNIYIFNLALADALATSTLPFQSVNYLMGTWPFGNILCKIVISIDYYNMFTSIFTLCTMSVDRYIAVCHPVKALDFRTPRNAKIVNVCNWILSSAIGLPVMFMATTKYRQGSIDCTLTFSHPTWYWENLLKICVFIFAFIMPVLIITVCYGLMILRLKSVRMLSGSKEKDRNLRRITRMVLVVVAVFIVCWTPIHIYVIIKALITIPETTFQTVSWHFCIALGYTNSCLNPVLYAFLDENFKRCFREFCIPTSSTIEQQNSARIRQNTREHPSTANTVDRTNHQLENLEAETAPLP
T2 sequence (P41143 whole entry): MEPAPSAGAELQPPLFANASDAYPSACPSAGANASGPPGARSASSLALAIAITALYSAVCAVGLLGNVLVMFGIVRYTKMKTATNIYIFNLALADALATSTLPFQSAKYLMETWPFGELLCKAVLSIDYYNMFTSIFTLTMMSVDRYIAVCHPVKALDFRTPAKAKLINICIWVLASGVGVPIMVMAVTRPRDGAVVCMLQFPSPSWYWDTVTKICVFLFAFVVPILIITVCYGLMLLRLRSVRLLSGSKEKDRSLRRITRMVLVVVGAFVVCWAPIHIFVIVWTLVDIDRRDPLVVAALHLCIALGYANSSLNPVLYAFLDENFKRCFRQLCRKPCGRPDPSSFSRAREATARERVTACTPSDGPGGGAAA

| Compound | Activity (Mus musculus [1]) | Activity (Mus musculus [2]) | EC50 (Mu-type opioid receptor [3]) [nM] | Ki [4] [nM] | Ki (Mu-type opioid receptor [5]) [nM] | Ki [6] [nM] | solubility [7] | EC50 [8] [nM] | EC50 [9] [nM] |
| --- | --- | --- | --- | --- | --- | --- | --- | --- | --- |
| O=C(N[C@@H]1CC[C@@]2(O)[C@H]3Cc4ccc(O)c5c4[C@@]2(CCN3CC2CC2)[C@H]1O5)c1ccsc1 | inactive | Active | – | – | – | – | – | – | – |
| O=C(Cc1ccc[nH]1)N[C@@H]1CC[C@@]2(O)[C@H]3Cc4ccc(O)c5c4[C@@]2(CCN3CC2CC2)[C@H]1O5 | Active | – | 0.8 | 24.3 | 0.16 | 1.35 | – | – | – |
| O=C(CCc1ccco1)N[C@H]1CC[C@@]2(O)[C@H]3Cc4ccc(O)c5c4[C@@]2(CCN3CC2CC2)[C@H]1O5 | inactive | inactive | – | – | – | – | – | – | – |
| O=C(CCc1ccsc1)N[C@@H]1CC[C@@]2(O)[C@H]3Cc4ccc(O)c5c4[C@@]2(CCN3CC2CC2)[C@H]1O5 | Active | – | – | – | – | – | – | – | – |
| O=C(Cc1ccsc1)N[C@H]1CC[C@@]2(O)[C@H]3Cc4ccc(O)c5c4[C@@]2(CCN3CC2CC2)[C@H]1O5 | inactive | inactive | 1.21 | 39.4 | 0.23 | 0.65 | – | – | – |
| O=C(Cc1ccoc1)N[C@@H]1CC[C@@]2(O)[C@H]3Cc4ccc(O)c5c4[C@@]2(CCN3CC2CC2)[C@H]1O5 | inactive | inactive | 0.91 | 73 | 0.22 | 3.68 | – | – | – |
| O=C(CCc1cccs1)N[C@@H]1CC[C@@]2(O)[C@H]3Cc4ccc(O)c5c4[C@@]2(CCN3CC2CC2)[C@H]1O5 | Active | – | – | – | – | – | – | – | – |
| O=C(N[C@@H]1CC[C@@]2(O)[C@H]3Cc4ccc(O)c5c4[C@@]2(CCN3CC2CC2)[C@H]1O5)c1ccc[nH]1 | inactive | inactive | – | – | – | – | – | – | – |
| O=C(Cc1cccs1)N[C@H]1CC[C@@]2(O)[C@H]3Cc4ccc(O)c5c4[C@@]2(CCN3CC2CC2)[C@H]1O5 | inactive | inactive | – | – | – | – | – | – | – |
| O=C(CCc1cc[nH]c1)N[C@H]1CC[C@@]2(O)[C@H]3Cc4ccc(O)c5c4[C@@]2(CCN3CC2CC2)[C@H]1O5 | inactive | Active | 3.86 | 8.62 | 0.7 | 0.59 | Insoluble | – | – |
| O=C(Cc1ccco1)N[C@@H]1CC[C@@]2(O)[C@H]3Cc4ccc(O)c5c4[C@@]2(CCN3CC2CC2)[C@H]1O5 | inactive | Active | 0.97 | 45.6 | 0.23 | 3.38 | – | 42.3 | 13.3 |
| O=C(CCc1ccco1)N[C@@H]1CC[C@@]2(O)[C@H]3Cc4ccc(O)c5c4[C@@]2(CCN3CC2CC2)[C@H]1O5 | inactive | inactive | – | – | – | – | – | – | – |
| O=C(Cc1cc[nH]c1)N[C@H]1CC[C@@]2(O)[C@H]3Cc4ccc(O)c5c4[C@@]2(CCN3CC2CC2)[C@H]1O5 | inactive | inactive | 51.4 | 14.4 | 3.62 | 19 | – | – | – |
| O=C(Cc1cccs1)N[C@@H]1CC[C@@]2(O)[C@H]3Cc4ccc(O)c5c4[C@@]2(CCN3CC2CC2)[C@H]1O5 | inactive | inactive | – | 64.9 | – | – | – | – | – |
| O=C(Cc1ccco1)N[C@H]1CC[C@@]2(O)[C@H]3Cc4ccc(O)c5c4[C@@]2(CCN3CC2CC2)[C@H]1O5 | inactive | Active | 2.74 | 4.61 | 0.59 | 6.67 | – | 6.2 | 85.4 |
| O=C(Cc1ccsc1)N[C@@H]1CC[C@@]2(O)[C@H]3Cc4ccc(O)c5c4[C@@]2(CCN3CC2CC2)[C@H]1O5 | inactive | inactive | 3.24 | 36.1 | 0.2 | 1.31 | – | – | – |
| O=C(N[C@H]1CC[C@@]2(O)[C@H]3Cc4ccc(O)c5c4[C@@]2(CCN3CC2CC2)[C@H]1O5)c1ccco1 | inactive | inactive | 9.49 | 33.3 | 0.53 | 1.97 | – | – | – |
| O=C(CCc1cc[nH]c1)N[C@@H]1CC[C@@]2(O)[C@H]3Cc4ccc(O)c5c4[C@@]2(CCN3CC2CC2)[C@H]1O5 | inactive | inactive | 1.6 | 67.5 | 0.41 | 2.72 | – | – | – |

Reference: ChEMBL document CHEMBL5046295 (J Med Chem, 2022)
